The subject of one assay is E. coli JUHL. The assay can be described thus: in vitro antibiotic activity, two-fold agar dilution (MIC). The following applies: Escherichia coli. The class given is cell-based. Here is the method: (§1) The in vitro activity of 3-demethoxyfortimicin A of Example 10 is determined by a two-fold dilution test using 10 ml. of Mueller-Hinton agar per Petri plate. The agar plates are innoculated with approximately 1×10^5 of the test organisms indicated in Table II, delivered to the agar surface by a Steers replicator. The innoculated plates are incubated for 24 hours at 35° C. in the presence of varying concentrations of 3-demethoxyfortimicin A tetrahydrochloride of Example 10 or fortimicin A sulfate as a comparative antibiotic.
On the technique in general: Agar dilution tests growth on a series of plates holding different concentrations.

The next assay deals with Proteus rettgeri U6333. The assay is described as above. The class given is cell-based. The following applies: Providencia rettgeri. As for the experimental part:
as §1

The subject of assay [1] is Pseudo. aeruginosa BMH #10. Described as above. The class given is cell-based. As to conditions: Pseudomonas aeruginosa. As for the experimental part: as §1
The next assay has as its system Strep. faecalis 10541. The description is as above. The class given is cell-based. Here is the method:
as §1

Assay [2] deals with Pseudo. aeruginosa KY 8516. The assay is described as above. As to conditions: Pseudomonas aeruginosa. The class given is cell-based. As for the experimental part: as §1
The next assay relates to Serratia marcescens 4003. Described as above. The class given is cell-based. Here is the method:
as §1

In another assay the test system is Shigella sonnei 9290. The description is as above. The class given is cell-based. As to conditions: Mueller-Hinton agar, 24 hours, 35° C. Here is the method: as §1
In assay [3] the test system is Proteus mirabilis Fin. #9. The description is as above. The class given is cell-based. As for the experimental part:
as §1

Another assay deals with E. coli BL 3676 (Res). Described as above. The following applies: Escherichia coli. The class given is cell-based. Here is the method:
as §1

The test system of assay [4] is Enterobacter aerogenes 13048. The assay is described as above. The class given is cell-based. As for the experimental part: as §1
The test system of the next assay is Providencia 1577. Described as above. The class given is cell-based. Here is the method: as §1
The next assay concerns Kleb. pneumoniae KY 4262. Described as above. The following applies: Klebsiella pneumoniae. The class given is cell-based. Here is the method: as §1
The subject of the next assay is Staph. aureus Smith. Described as above. The class given is cell-based. The following applies: Staphylococcus aureus. As for the experimental part: as §1
In a further assay the test system is Proteus vulgaris JJ. Described as above. The class given is cell-based. Here is the method: as §1
In assay [5] the test system is Pseudo. aeruginosa KY 8512. The description is as above. The class given is cell-based. As to conditions: Pseudomonas aeruginosa. As for the experimental part:
as §1

In assay [6] the test system is strains tested (Table II). The assay can be described thus: overall antibiotic activity relative to fortimicin A sulfate. The class given is cell-based. Here is the method: as §1
In a further assay the test system is Kleb. pneumoniae 10031. The assay can be described thus: in vitro antibiotic activity, two-fold agar dilution (MIC). The class given is cell-based, Klebsiella pneumoniae. As for the experimental part:
as §1

A further assay relates to Sal. typhimurium Ed. #9. The assay is described as above. The class given is cell-based, Salmonella typhimurium. As to conditions: Salmonella enterica. As for the experimental part:
as §1

In a further assay the test system is E. coli 76-2. The description is as above. The class given is cell-based, Escherichia coli. As for the experimental part: as §1
The test system of a further assay is Pseudo. aeruginosa 209. Described as above. The class given is cell-based, Pseudomonas aeruginosa. Here is the method:
as §1

The test system of the next assay is Pseudo aeruginosa 27853. The description is as above. The class given is cell-based, Pseudomonas aeruginosa. As for the experimental part: as §1

Structures can show the parent of a compound that is named as a salt. Where two headings read alike, the source gives them in different places.

One may read the MIC as the lowest concentration that inhibits growth of the organism. On to `CC(N)C1CCC(N)C(OC2C(N)C(O)CC(N(C)C(=O)CN)C2O)O1` (stereo not drawn) [3-Demethoxyfortimicin A tetrahydrochloride], for which the MIC turned out to be 3.1 µg/mL in the assay with E. coli JUHL (E. coli JUHL, Mueller-Hinton agar, 24 hours, 35° C., read-out: MIC); 6.2 µg/mL in the assay with Proteus rettgeri U6333 (Proteus rettgeri U6333, Mueller-Hinton agar, 24 hours, 35° C., read-out: MIC); 0.78 µg/mL in [1] (Pseudo. aeruginosa BMH #10, Mueller-Hinton agar, 24 hours, 35° C., read-out: MIC); 25 µg/mL in the assay with Strep. faecalis 10541 (Enterococcus faecalis, Strep. faecalis 10541, Mueller-Hinton agar, 24 hours, 35° C., read-out: MIC); 3.1 µg/mL in assay [2] (KY8516, Pseudo. aeruginosa KY 8516, Mueller-Hinton agar, 24 hours, 35° C., read-out: MIC); 1.56 µg/mL with Serratia marcescens 4003 (Serratia marcescens 4003, Mueller-Hinton agar, 24 hours, 35° C., read-out: MIC). Further, the MIC in the assay with Shigella sonnei 9290 worked out at 3.1 µg/mL; in [3] (Proteus mirabilis Fin. #9, Mueller-Hinton agar, 24 hours, 35° C., read-out: MIC), 3.1 µg/mL; in the assay on E. coli BL 3676 (Res) (E. coli BL 3676 (Res), Mueller-Hinton agar, 24 hours, 35° C., read-out: MIC), 25 µg/mL; in assay [4] (Klebsiella aerogenes, Enterobacter aerogenes 13048, Mueller-Hinton agar, 24 hours, 35° C., read-out: MIC), 3.1 µg/mL; in the assay on Providencia 1577 (Providencia 1577, Mueller-Hinton agar, 24 hours, 35° C., read-out: MIC), 1.56 µg/mL; in the assay with Kleb. pneumoniae KY 4262 (KY4262, Kleb. pneumoniae KY 4262, Mueller-Hinton agar, 24 hours, 35° C., read-out: MIC) it was 3.1 µg/mL. For the same molecule, the MIC in the assay with Staph. aureus Smith (Staph. aureus Smith, Mueller-Hinton agar, 24 hours, 35° C., read-out: MIC) stood at 0.78 µg/mL; with Proteus vulgaris JJ (Proteus vulgaris JJ, Mueller-Hinton agar, 24 hours, 35° C., read-out: MIC) it was 3.1 µg/mL; in assay [5] (KY8512, Pseudo. aeruginosa KY 8512, Mueller-Hinton agar, 24 hours, 35° C., read-out: MIC) it was 3.1 µg/mL; in the assay on Kleb. pneumoniae 10031 (Klebsiella pneumoniae, Kleb. pneumoniae 10031, Mueller-Hinton agar, 24 hours, 35° C., read-out: MIC), 1.56 µg/mL; in the assay with Sal. typhimurium Ed. #9 (Sal. typhimurium Ed. #9, Mueller-Hinton agar, 24 hours, 35° C., read-out: MIC), 3.1 µg/mL; in the assay on E. coli 76-2 (Escherichia coli, 762, E. coli 76-2, Mueller-Hinton agar, 24 hours, 35° C., read-out: MIC), 1.56 µg/mL. Besides, the MIC in the assay on Pseudo. aeruginosa 209 (Pseudomonas aeruginosa, Pseudo. aeruginosa 209, Mueller-Hinton agar, 24 hours, 35° C., read-out: MIC) is 100 µg/mL; in the assay with Pseudo aeruginosa 27853 (Pseudomonas aeruginosa, Pseudo aeruginosa 27853, Mueller-Hinton agar, 24 hours, 35° C., read-out: MIC) it was 6.2 µg/mL. Moreover, the “activity relative to that of fortimicin A sulfate” value in assay [6] (against many of the susceptible strains tested) is recorded as around 200%. The “overall activity relative to that of fortimicin A sulfate” value in assay [6] (overall, all strains of Table II) is “approximately 137%”.
`COC1C(O)C(N)C(OC2OC(C(C)N)CCC2N)C(O)C1N(C)C(=O)CN` (stereo not drawn) [Fortimicin A Sulfate, fortimicin A sulfate, reference compound]: the MIC against E. coli JUHL (24 h) was found to be 3.1 µg/mL; in the assay with Proteus rettgeri U6333 (U6333, 24 h), 12.5 µg/mL; in assay [1] (24 h), 0.78 µg/mL; in the assay on Strep. faecalis 10541 (Enterococcus faecalis, 10541, 24 h), 50 µg/mL; in [2] (KY8516, 24 h) it was 6.2 µg/mL; in the assay with Serratia marcescens 4003 (Serratia marcescens, 4003, 24 h), 3.1 µg/mL. Also, the MIC was 6.2 µg/mL with Shigella sonnei 9290; 3.1 µg/mL in [3] (Proteus mirabilis, 24 h); 25 µg/mL against E. coli BL 3676 (Res) (24 h); 3.1 µg/mL in assay [4] (Klebsiella aerogenes, 13048, 24 h); 1.56 µg/mL in the assay with Providencia 1577 (Providencia, 1577, 24 h); 6.2 µg/mL in the assay with Kleb. pneumoniae KY 4262 (KY4262, 24 h). Further, the MIC in the assay on Staph. aureus Smith (24 h) stood at 0.78 µg/mL; in the assay with Proteus vulgaris JJ (Proteus vulgaris, 24 h), 3.1 µg/mL; in assay [5] (KY8512, 24 h) it was 6.2 µg/mL; in the assay on Kleb. pneumoniae 10031 (Klebsiella pneumoniae, 10031, 24 h), 1.56 µg/mL; in the assay with Sal. typhimurium Ed. #9 (TYPHIMURIUM, 24 h) it was 3.1 µg/mL; against E. coli 76-2 (Escherichia coli, 762, 24 h), 3.1 µg/mL. Further, the MIC against Pseudo. aeruginosa 209 (Pseudomonas aeruginosa, 209, 24 h) came to 100 µg/mL; against Pseudo aeruginosa 27853 (Pseudomonas aeruginosa, 27853, 24 h) it was 12.5 µg/mL.
